Assays:
[1] = system: symptomatic skeletal events in mCRPC patients; test: Same clinical study: symptomatic skeletal events (SSE); type: in vivo, human
Excerpt: Time to symptomatic skeletal event rate: is defined as the time interval between the date of randomization and the date of the occurrence of the first event defining a symptomatic skeletal event (occurrence of a new symptomatic fracture, use of radiation therapy to relieve bone pain, occurrence of spinal cord compression or cancer-related orthopedic surgical intervention).
SSEs were defined as either the use of external beam radiation to relieve bone pain, occurrence of new symptomatic pathologic fractures, occurrence of spinal cord compression, or tumor-related orthopedic surgical intervention. SSEs were evaluated at baseline, at each visit, at the end of treatment, and every 12 weeks during follow-up. Standard imaging (bone scans and computed tomography or magnetic resonance imaging of the pelvis, abdomen, and chest) was scheduled at baseline and every 12 weeks until imaging-based disease progression. Pathologic fractures and spinal cord compression were assessed by imaging as needed throughout the study. Time to SSE was defined as time from randomization until first documented SSE.
Efficacy analysis used all randomized patients. Stratified log-rank tests were used to analyze time-to-event data. The primary analysis compared radiographic progression-free survival between the two treatment groups using a stratified log-rank test. Survival curves were generated using Kaplan-Meier estimates. Hazard ratios and associated 95% confidence intervals [CI] were estimated using a stratified Cox proportional hazards model. Stratified Cochran-Mantel-Haenszel chi-square tests were used to analyze categorical data. Descriptive statistics were used to summarize patient characteristics. The safety population (randomized patients who received at least one dose of study treatment) was used for all safety analyses.

[2] = system: metastatic castration-resistant prostate cancer (mCRPC) patients previously treated with docetaxel and who failed a prior androgen signaling targeted inhibitor; test: Randomized open-label clinical study, cabazitaxel vs abiraterone acetate or enzalutamide: imaging-based PFS, OS, PFS, PSA and tumor response; type: in vivo, human; settings: for Deaths: at cut-off date; for rPFS, HR: cabazitaxel vs abiraterone or enzalutamide
Excerpt: Imaging-based progression-free survival (rPFS): defined as the time from randomization until the occurrence of one of the following events: objective tumor progression (Response Evaluation Criteria in Solid Tumors, version 1.1), progression of bone lesions (Prostate Cancer Working Group 2) or death due to any cause.
Overall survival (OS): defined as the time from the date of randomization to the date of death due to any cause.
Progression-free survival (PFS) defined as the time from randomization until the occurrence of objective tumor progression (using Response Evaluation Criteria in Solid Tumors, version 1.1), or progression of bone lesions (using Prostate Cancer Working Group 2 criteria), or symptomatic progression (defined as the development of urinary or bowel symptoms related to prostate cancer or requiring a change of anticancer therapy), or pain progression, or death due to any cause.
PSA response: defined as a decline of serum PSA from baseline of ≥50% with confirmation from a second PSA value measured at least 3 weeks apart. Best PSA response was defined using the Prostate Cancer Working Group criteria 2 definition.
Tumor response (TR): was measured using Response Evaluation Criteria in Solid Tumors, version 1.1 in patients with measurable disease.
A clinical study was performed wherein patients received cabazitaxel versus an Androgen Receptor (AR)-targeted agent (abiraterone acetate or enzalutamide) in metastatic castration-resistant prostate cancer (mCRPC) patients previously treated with docetaxel and who failed a prior androgen signaling pathway inhibitor within 12 months.
For patients in Arm A, cabazitaxel 25 mg/m^2 was administered intravenously over 1 hour every 3 weeks along with oral prednisone 10 mg given daily. Primary prophylactic granulocyte-colony stimulating factor (G-CSF) was required at each cycle for all patients in the cabazitaxel arm
For patients in Arm B, abiraterone acetate was administered orally at 1000 mg once daily along with oral prednisone 5 mg given twice daily or enzalutamide was administered orally at 160 mg once daily continuously. Abiraterone acetate was administered to patients who had received enzalutamide prior to study entry. Enzalutamide was administered to patients who received prior abiraterone acetate.
Each patient was treated until imaging-based disease progression, unacceptable toxicity, or patient's refusal of further study treatment. All patients were followed when on study treatment and after completion of study treatment during follow-up period until death, the study cut-off date, or withdrawal of patients' consent whichever came first.
Eligible patients were randomized to receive either cabazitaxel or an AR pathway inhibitor (abiraterone acetate or enzalutamide; dependent on the use of a previous androgen signaling targeted inhibitor) in a 1:1 ratio. Stratification criteria were Eastern Cooperative Oncology Group performance status, a 5-point scale where higher numbers indicate greater disability (0-1 vs. 2), and time to disease progression (≤6 months vs. >6-12 months) and timing (before vs. after docetaxel) with previous alternative AR pathway inhibitors.
Cabazitaxel 25 mg/m^2, was administered intravenously over 1 hour every 3 weeks with oral prednisone 10 mg daily. Premedication included an antihistamine, glucocorticoid (dexamethasone 8 mg or equivalent), and histamine 2 receptor antagonist. Antiemetic prophylaxis was administered at physician's discretion. Primary prophylactic granulocyte-colony stimulating factor was required during each cycle of cabazitaxel. Patients received either abiraterone acetate (1000 mg orally once daily and oral prednisone 5 mg twice daily) or enzalutamide (160 mg orally once daily) continuously. A treatment cycle was 3 weeks in both arms. Abiraterone acetate was given to patients who previously received enzalutamide before study entry. Enzalutamide was given to patients who previously received abiraterone acetate. […]

[3] = cabazitaxel vs androgen signaling targeted inhibitor

CO[C@H]1C(=O)[C@]2(C)[C@@H](OC)C[C@H]3OC[C@@]3(OC(C)=O)[C@H]2[C@H](OC(=O)c2ccccc2)[C@]2(O)C[C@H](OC(=O)[C@H](O)[C@@H](NC(=O)OC(C)(C)C)c3ccccc3)C(C)=C1C2(C)C [Cabazitaxel, 4α-acetoxy-2α-benzoyloxy-5β,20-epoxy-1p-hydroxy-7β,10β-dimethoxy-9-oxo-11-taxen-13α-yl (2R,3S)-3-tert-butoxycarbonylamino-2-hydroxy-3-phenylpropionate]
Patients estimated to have a symptomatic skeletal event at 18 months ([1]; 18 months): 28.8%
Kaplan-Meier probability of not having symptomatic skeletal events ([1]; at 3 months): 92.6%
Kaplan-Meier probability of not having symptomatic skeletal events ([1]; at 6 months): 85.8%
Kaplan-Meier probability of not having symptomatic skeletal events ([1]; at 12 months): 79.4%
Kaplan-Meier probability of not having symptomatic skeletal events ([1]; at 18 months): 71.2%
Time to symptomatic skeletal events, hazard ratio [1, 3]: 0.59
Surgery to the bone (first SSE) ([1]; human, in vivo): 0 n
Deaths [2]: 54.3%
Deaths ([2]; number): 70
Radiographic progression-free survival, hazard ratio, post hoc ([2]; cabazitaxel vs abiraterone acetate): 0.44
Overall survival, HR in multivariate analysis ([2]; cabazitaxel vs abiraterone/enzalutamide, in presence of low hemoglobin, high baseline NLR, high PSA): 0.63
Imaging-based progression-free survival, hazard ratio [2, 3]: 0.54
Overall survival, hazard ratio [2, 3]: 0.64
Progression-free survival, hazard ratio [2, 3]: 0.52
Radiographic progression-free survival, hazard ratio, post hoc ([2]; cabazitaxel vs enzalutamide): 0.57
Reduction of the risk of death from any cause ([2]; compared with abiraterone acetate or enzalutamide, all patients): 36%
Confirmed PSA reduction ≥50% from baseline ([2]; evaluable patients): (35.7) %
Confirmed PSA reduction ≥50% from baseline ([2]; evaluable patients, listed as cabazitaxel): 35.7%
Radiographic progression-free survival, treatment effect hazard ratio, multivariate ([2]; fixed model MV-1): 0.54
Overall survival, median ([2]; from randomization): 13.6 months
Median OS from time of 1st LET ([2]; human, in vivo): 36.4 months
Median OS from time of 2nd LET ([2]; human, in vivo): 24.2 months
Median OS from time of 3rd LET ([2]; human, in vivo): 13.6 months
Median OS from time of mCRPC diagnosis ([2]; human, in vivo): 40.9 months
Median OS from time of metastatic disease diagnosis ([2]; human, in vivo): 54.7 months
Progression-free survival, median ([2]; human, in vivo): 4.4 months
Treatment discontinuation for disease progression ([2]; human, in vivo): 43.7%
Imaging-based progression-free survival, median ([2]; intention-to-treat population): 8.0 months
Overall response rate ([2]; measurable disease): 36.5%
Tumor response, complete ([2]; measurable disease): 0 n
Tumor response, progressive disease ([2]; measurable disease): 15 n
Confirmed PSA reduction ≥50% from baseline ([2]; number of patients, evaluable 115 and 111): 41
rPFS, HR ([2]; patients 70 years or older): 0.58
rPFS, HR ([2]; patients aged <70 years): 0.47
Radiographic progression-free survival, treatment effect hazard ratio, multivariate ([2]; stepwise model MV-2): 0.50
Radiographic progression-free survival, treatment effect hazard ratio, multivariate ([2]; stepwise model MV-3): 0.52
Reduction in the risk of death ([2]; vs abiraterone or enzalutamide, both in patients ≥70 and <70 years): 34%
